Laboratory results reported in patent publication US10561676B2, “Method for treating cancer using dual antagonists of CXCR1 and CXCR2” (Syntrix Biosystems, Inc., priority 2018, dated 2020).

Experiment: Stability in human liver microsomes (NADPH-dependent)
Type: in vitro ADME
Method: The compounds were incubated in duplicate with human liver microsomes at 37° C. The reaction contained microsomal protein in 100 mM potassium phosphate, 2 mM NADPH, 3 mM MgCl2, pH 7.4. A control was run for each compound omitting NADPH to detect NADPH-independent degradation. An aliquot was removed from each experimental and control reaction at 0, 10, 20, 30, and 60 minutes and mixed with an equal volume of ice-cold Stop Solution (0.3% acetic acid in acetonitrile containing haloperidol, diclofenac, or other internal standard). Stopped reactions were incubated for at least ten minutes at −20° C., and an additional volume of water was added. The samples were centrifuged to remove precipitated protein, and the supernatants were analyzed by LCMS/MS to quantitate the remaining compound. Data were converted to percent remaining by dividing by the time zero concentration value. Data were fit to a first-order decay model to determine half-life. Intrinsic clearance was calculated from the half-life and the protein concentrations: CLint=ln(2)/(t½[microsomal protein]). […] More surprising is that eliminating the ring nitrogen in SX-517 yielded a half-life even larger than that of SX-682. The results as a whole led to no SAR predictive of the surprising stability of SX-682.

O=C(Nc1ccc(F)cc1)c1cnc(SCc2cc(OC(F)(F)F)ccc2B(O)O)nc1 [SX-682, 2-(2-boronic acid-5-trifluoromethoxy-benzylsulfanyl)-pyrimidine-5-carboxylic acid (4-fluoro-phenyl)-amide]
microsomal half-life larger than SX-671 or SX-576: 6 fold
microsomal CLint (pH 7.4, 37° C., NADPH-dependent, read-out: CLint, microsomal intrinsic clearance): 2.1 µL/min/mg
